Results as given in US20210238192A1, “VASCULAR ADHESION PROTEIN-1 (VAP-1) MODULATORS AND THERAPEUTIC USES THEREOF” (Blade Therapeutics, Inc., priority 2018, published 2021).
Counter-ions that a name gives are not always drawn.

Experiments:
Assay type in all cases: biochemical
[1] = molecular target: T1, Human MAO-A (Homo sapiens, UniProt P21397); assay: MAO-A inhibition (Amplex Red continuous fluorescence assay); conditions: 30 min pre-incubation at room temp; substrate tyramine; read-out: Human MAO-A IC50
T1 sequence (P21397 1-527): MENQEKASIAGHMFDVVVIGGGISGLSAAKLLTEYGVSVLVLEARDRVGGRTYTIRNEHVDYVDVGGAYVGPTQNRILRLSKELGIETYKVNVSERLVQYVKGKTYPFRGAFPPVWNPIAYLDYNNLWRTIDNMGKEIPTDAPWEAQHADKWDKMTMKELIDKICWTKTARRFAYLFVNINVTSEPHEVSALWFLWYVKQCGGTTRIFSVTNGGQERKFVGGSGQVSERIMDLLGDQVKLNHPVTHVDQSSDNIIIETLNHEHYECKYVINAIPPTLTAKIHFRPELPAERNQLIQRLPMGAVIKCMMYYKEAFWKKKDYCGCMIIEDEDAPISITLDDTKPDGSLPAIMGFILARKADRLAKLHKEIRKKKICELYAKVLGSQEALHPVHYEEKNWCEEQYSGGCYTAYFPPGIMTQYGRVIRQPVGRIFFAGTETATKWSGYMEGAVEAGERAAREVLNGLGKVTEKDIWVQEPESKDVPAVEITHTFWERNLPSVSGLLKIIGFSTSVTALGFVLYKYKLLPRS
Procedure: (§1) VAP-1, DAO, MAO-A, MAO-B, and HRP activity and inhibition thereof was assessed by means of a continuous fluorescence assay. The Amplex Red Hydrogen Peroxide/Peroxidase Assay (ThermoFisher) was optimized for detecting amine oxidase (AO) activity. In an enzyme-coupled reaction, the H2O2 generated by AO reacts 1:1 with Amplex Red reagent to produce fluorescent product resorufin.
(§2) Assays were typically setup in black 384-well plates using automated liquid handling as follows. VAP-1/MAO assay buffer contains […] sodium phosphate, pH 7.4; DAO assay buffer contains 50 mM HEPES, pH 7.5; HRP assay buffer contains 100 mM CHES, 1 mM MgCl2, 50 mM NaCl, 0.05% BSA, pH 9.0. Inhibitors were serially diluted in DMSO and used to setup 2× mixtures with AO in the aforementioned buffer. After 30 min pre-incubation at 37° C. (VAP-1, HRP) or room temp (DAO, MAO), the reaction was initiated by adding a 2× mix of Amplex Red, HRP (coupling enzyme), and substrate (benzylamine, histamine, tyramine, benzylamine, H2O2, for VAP-1, DAO, MAO-A, MAO-B, and HR, respectively) in the same buffer. Reaction progress curve data were typically collected for 5 min using excitation/emission wavelengths of 510 nm/565 nm on FLIPR-Tetra plate readers (Molecular Devices Inc). Reaction rates were calculated from progress curve slopes typically over 60-150 sec. Dose response curves (rate vs. log inhibitor concentration) were typically fit to a 4-parameter logistic function to extract IC50 values.

[2] = molecular target: T2, Human MAO-B (Homo sapiens, UniProt P27338); assay: MAO-B inhibition (Amplex Red continuous fluorescence assay); conditions: 30 min pre-incubation at room temp; substrate benzylamine; read-out: Human MAO-B IC50
T2 sequence (P27338 1-520): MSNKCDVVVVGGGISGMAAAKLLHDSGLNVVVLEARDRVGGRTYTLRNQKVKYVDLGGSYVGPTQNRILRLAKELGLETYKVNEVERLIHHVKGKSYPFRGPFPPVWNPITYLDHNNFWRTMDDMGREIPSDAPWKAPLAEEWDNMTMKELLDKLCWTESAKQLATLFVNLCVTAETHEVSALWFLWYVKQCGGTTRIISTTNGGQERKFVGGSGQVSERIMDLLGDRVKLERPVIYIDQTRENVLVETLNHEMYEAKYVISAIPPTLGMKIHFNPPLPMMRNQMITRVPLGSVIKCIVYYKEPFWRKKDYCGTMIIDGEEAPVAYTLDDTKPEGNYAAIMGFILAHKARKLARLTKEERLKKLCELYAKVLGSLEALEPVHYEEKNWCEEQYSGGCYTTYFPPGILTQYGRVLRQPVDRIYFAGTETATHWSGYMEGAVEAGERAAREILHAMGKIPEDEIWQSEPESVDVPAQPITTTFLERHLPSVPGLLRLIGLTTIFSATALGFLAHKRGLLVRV
Procedure: as §1, §2

[3] = molecular target: T3, Human VAP-1 (Homo sapiens, UniProt Q16853); assay: VAP-1 inhibition assay (Amplex Red continuous fluorescence assay); conditions: 30 min pre-incubation at 37° C.; substrate benzylamine; read-out: Human VAP-1 IC50
T3 sequence (Q16853 1-763): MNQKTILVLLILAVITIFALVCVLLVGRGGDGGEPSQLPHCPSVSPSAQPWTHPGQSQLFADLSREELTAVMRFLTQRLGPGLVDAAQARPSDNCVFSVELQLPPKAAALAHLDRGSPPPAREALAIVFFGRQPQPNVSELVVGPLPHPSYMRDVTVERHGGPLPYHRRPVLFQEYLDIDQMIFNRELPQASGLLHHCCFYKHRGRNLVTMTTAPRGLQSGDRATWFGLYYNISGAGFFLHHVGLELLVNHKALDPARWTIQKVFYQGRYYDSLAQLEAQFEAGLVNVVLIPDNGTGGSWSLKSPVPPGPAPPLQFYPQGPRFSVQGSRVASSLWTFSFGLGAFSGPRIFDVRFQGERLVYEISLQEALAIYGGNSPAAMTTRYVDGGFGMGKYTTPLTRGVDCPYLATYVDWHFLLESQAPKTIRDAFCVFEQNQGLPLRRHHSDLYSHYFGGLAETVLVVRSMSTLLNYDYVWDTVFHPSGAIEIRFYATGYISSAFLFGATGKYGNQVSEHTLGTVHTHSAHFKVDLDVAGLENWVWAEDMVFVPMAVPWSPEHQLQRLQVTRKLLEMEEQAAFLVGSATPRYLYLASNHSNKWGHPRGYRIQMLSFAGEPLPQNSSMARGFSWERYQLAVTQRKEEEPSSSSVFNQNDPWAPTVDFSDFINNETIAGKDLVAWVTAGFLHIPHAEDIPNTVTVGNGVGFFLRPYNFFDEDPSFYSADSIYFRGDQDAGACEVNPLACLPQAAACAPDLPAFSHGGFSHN
Procedure: as §1, §2

[4] = molecular target: T4, Human DAO (Homo sapiens, UniProt P19801); assay: DAO inhibition (Amplex Red continuous fluorescence assay); conditions: 30 min pre-incubation at room temp; substrate histamine; read-out: Human DAO IC50
T4 sequence (P19801 20-751): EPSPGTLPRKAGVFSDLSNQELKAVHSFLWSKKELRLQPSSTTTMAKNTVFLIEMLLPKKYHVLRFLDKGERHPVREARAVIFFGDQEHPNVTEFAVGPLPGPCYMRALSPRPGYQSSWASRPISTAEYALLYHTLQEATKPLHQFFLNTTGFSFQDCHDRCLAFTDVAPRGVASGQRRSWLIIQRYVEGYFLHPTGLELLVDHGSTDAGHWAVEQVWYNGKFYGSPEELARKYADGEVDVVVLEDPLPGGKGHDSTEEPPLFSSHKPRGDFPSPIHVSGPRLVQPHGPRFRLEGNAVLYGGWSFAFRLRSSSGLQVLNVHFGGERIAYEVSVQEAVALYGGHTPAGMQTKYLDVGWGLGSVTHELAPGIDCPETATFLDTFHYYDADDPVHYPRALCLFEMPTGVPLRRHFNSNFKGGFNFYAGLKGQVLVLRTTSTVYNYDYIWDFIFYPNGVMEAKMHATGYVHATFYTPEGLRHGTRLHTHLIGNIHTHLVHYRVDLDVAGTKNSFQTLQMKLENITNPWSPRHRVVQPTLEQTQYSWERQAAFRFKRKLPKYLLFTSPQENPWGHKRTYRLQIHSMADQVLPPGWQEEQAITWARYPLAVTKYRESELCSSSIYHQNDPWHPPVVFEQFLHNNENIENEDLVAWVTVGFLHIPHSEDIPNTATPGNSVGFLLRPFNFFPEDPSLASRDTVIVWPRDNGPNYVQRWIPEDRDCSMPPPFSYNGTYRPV
Procedure: as §1, §2

NC/C(=C/F)COc1ccc(-c2nc3ccccc3[nH]2)cc1 [Compound 11, (Z)-2-((4-(1H-benzo[d]imidazol-2-yl)phenoxy)methyl)-3-fluoroprop-2-en-1-amine hydrochloride]
IC50 [1]: < 3 µM
IC50 [2]: < 3 µM
IC50 [3]: < 3 µM
IC50 [4]: < 3 µM

CCOC(=O)Nc1ccc(OC/C(=C/F)CN)cc1 [Compound 13]
IC50 [1]: < 3 µM
IC50 [2]: < 3 µM
IC50 [3]: < 3 µM
IC50 [4]: 3 to 10 µM

NC/C(=C\F)COc1cccc2c1OCO2 [Compound 14, (E)-2-((benzo[d][1,3]dioxol-4-yloxy)methyl)-3-fluoroprop-2-en-1-amine hydrochloride]
IC50 [1]: < 3 µM
IC50 [2]: < 3 µM
IC50 [3]: < 3 µM
IC50 [4]: 3 to 10 µM

NC/C(=C\F)Cn1ccc2ccccc21 [Compound 15, (E)-2-((1H-indol-1-yl)methyl)-3-fluoroprop-2-en-1-amine hydrochloride]
IC50 [1]: < 3 µM
IC50 [2]: < 3 µM
IC50 [3]: < 3 µM
IC50 [4]: > 10 µM

NC/C(=C/F)COc1cccc2c1OCO2 [Compound 16, (Z)-2-((benzo[d][1,3]dioxol-4-yloxy)methyl)-3-fluoroprop-2-en-1-amine hydrochloride]
IC50 [1]: < 3 µM
IC50 [2]: < 3 µM
IC50 [3]: < 3 µM
IC50 [4]: < 3 µM

CC(C)NC(=O)Nc1ccc(OC/C(=C/F)CN)cc1 [Compound 18, (E)-1-(4-((2-(aminomethyl)-3-fluoroalkyl)oxy)phenyl)-3-isopropylurea hydrochloride]
IC50 [1]: < 3 µM
IC50 [2]: < 3 µM
IC50 [3]: < 3 µM
IC50 [4]: 3 to 10 µM

NC/C(=C\F)COc1ccc(-c2nccs2)cc1 [Compound 19, (E)-3-fluoro-2-((4-(thiazol-2-yl)phenoxy)methyl)prop-2-en-1-amine hydrochloride]
IC50 [1]: 3 to 10 µM
IC50 [2]: < 3 µM
IC50 [3]: < 3 µM
IC50 [4]: < 3 µM

NC/C(=C/F)COc1ccc(-c2nccs2)cc1 [Compound 20, (Z)-3-Fluoro-2-((4-(Thiazol-2-Yl)Phenoxy)Methyl)Prop-2-En-1-Amine Hydrochloride]
IC50 [1]: < 3 µM
IC50 [2]: < 3 µM
IC50 [3]: < 3 µM
IC50 [4]: < 3 µM

NC/C(=C\F)CNC(=O)c1ccccc1 [Compound 21, (E)-N-(2-(aminomethyl)-3-fluoroalkyl)benzamide hydrochloride]
IC50 [1]: 3 to 10 µM
IC50 [2]: > 10 µM
IC50 [3]: < 3 µM
IC50 [4]: > 10 µM

CCNC(=O)N(C)c1ccc(OC/C(=C/F)CN)cc1 [Compound 23, (E)-1-(4-((2-(aminomethyl)-3-fluoroalkyl)oxy)phenyl)-3-ethyl-1-methylurea hydrochloride]
IC50 [1]: > 10 µM
IC50 [2]: 3 to 10 µM
IC50 [3]: < 3 µM
IC50 [4]: > 10 µM

CCN(CC)C(=O)Nc1ccc(OC/C(=C/F)CN)cc1 [Compound 24, (E)-3-(4-((2-(aminomethyl)-3-fluoroalkyl)oxy)phenyl)-1,1-diethylurea hydrochloride]
IC50 [1]: 3 to 10 µM
IC50 [2]: < 3 µM
IC50 [3]: < 3 µM
IC50 [4]: > 10 µM

NC/C(=C\F)COc1ccc(-c2ncco2)cc1 [Compound 25, (E)-3-fluoro-2-((4-(oxazol-2-yl)phenoxy)methyl)prop-2-en-1-amine hydrochloride]
IC50 [1]: 3 to 10 µM
IC50 [2]: < 3 µM
IC50 [3]: < 3 µM
IC50 [4]: < 3 µM

NC/C(=C\F)CNCc1ccccc1 [Compound 26, (E)-N^1-benzyl-2-(fluoromethylene)propane-1,3-diamine]
IC50 [1]: 3 to 10 µM
IC50 [2]: < 3 µM
IC50 [3]: < 3 µM
IC50 [4]: > 10 µM

Cn1ccnc1-c1ccc(OC/C(=C\F)CN)cc1 [Compound 28, hydrochloride]
IC50 [1]: > 10 µM
IC50 [2]: < 3 µM
IC50 [3]: < 3 µM
IC50 [4]: < 3 µM

NC/C(=C\F)COc1ccc(-c2cocn2)cc1 [Compound 29, (E)-3-fluoro-2-((4-(oxazol-4-yl)phenoxy)methyl)prop-2-en-1-amine hydrochloride]
IC50 [1]: < 3 µM
IC50 [2]: < 3 µM
IC50 [3]: < 3 µM
IC50 [4]: < 3 µM

NC/C(=C/F)COc1ccc(-c2cocn2)cc1 [Compound 30, (Z)-3-fluoro-2-((4-(oxazol-4-yl)phenoxy)methyl)prop-2-en-1-amine hydrochloride]
IC50 [1]: < 3 µM
IC50 [2]: < 3 µM
IC50 [3]: < 3 µM
IC50 [4]: < 3 µM

NC/C(=C\F)COc1ccc(-c2ccccc2)cc1 [Compound 33, (E)-2-(([1,1′-biphenyl]-4-yloxy)methyl)-3-fluoroprop-2-en-1-amine hydrochloride]
IC50 [1]: < 3 µM
IC50 [2]: < 3 µM
IC50 [3]: < 3 µM
IC50 [4]: > 10 µM

NC/C(=C/F)COc1ccc(-c2ccccc2)cc1 [Compound 34, (Z)-2-(([1,1′-biphenyl]-4-yloxy)methyl)-3-fluoroprop-2-en-1-amine hydrochloride]
IC50 [1]: < 3 µM
IC50 [2]: < 3 µM
IC50 [3]: < 3 µM
IC50 [4]: < 3 µM
